In US9977030B2, “Detection of shed CD31, diagnosis of atherothrombosis and autoimmune disorders, and methods for analyzing signaling pathways” (INSTITUT NATIONAL DE LA SANTE ET DE LA RECHERCHE MEDICALE …, priority 2008, dated 2018):

Test system: CD31 signaling complex captured by PECAM1.2 (CD31 domain 6) beads
Experiment: CBA beads assessment of CD31 ITIM-dependent inhibitory pathway in Jurkat T cells (protein association and phosphorylation)
Format: cell-based, human
Experimental: Lysis of the cells. Jurkat T cells in log phase (10×10^6/ml, 1 ml) were either left untouched (negative control) or incubated with Na3VO4/H2O2 (sodium ortovanadate which is a tyrosin phosphatase inhibitor, positive control for tyrosin phosphorylation). In parallel, cells were stimulated either with CD3 or with CD3+ CD31 (domain 2, WM-59 antibody) by antibody-mediated crosslinking. After 20′ incubation at 37° C. in 5% CO2, the cells were lysed on ice for 30′ with a RIPA buffer containing a cocktail of protease and phosphatase inhibitors. Lysates were ultragentrifuged and supernatants were used either straightforward or aliquoted and stored at −20° for further analysis.
Capture of the target protein on a solid support (1 hour at room temperature). This step follows the principle of imunoprecipitation but the signaling complex is nor denatured neither reduced, and no electrophoresis and/or blotting is carried out. As a solid support, CBA® functional beads previously coupled with an antibody directed to the membrane-proximal CD31 Ig-like domain 6 (clone MBC 78.2 also called PECAM1.2) were used following the manufacturer's instructions. An aliquot of 20 μl of lysate supernatant from each condition was incubated with 5 μl PECAM1.2-CBA® for 1 hour at room temperature.
Detection of molecules associated with CD31 and of the phosphorylation state of CD31 ITIM 686. After washing of the beads once with CBA washing buffer (100 μl/tube), the beads were been aliquoted in 4 separate tubes and incubated with fluorescent antibodies directed to: • CD3-FITC; • CD28-PE; • CD31 domain 6 (PECAM1.2 FITC) • CD31 domain 2 (WM-59 PE) • phosphoTyrosin (clone 4G10 FITC); • phosphoSerin/Threonin (labelled with FITC) • CD31 phosphotyrosin 686 (rabbit polyclonal conjugated with alexafluor 488 antirabbit secondary antibody); or • SHP2-PE.
After 1 hour incubation at room temperature in the dark, beads were washed once with 100 μl CBA washing buffer and more than 600 beads were acquired using an LSR II and DIVA® software.
4. Analysis. The median fluorescence in each fluorescent channel was recorded. The DIVA® software also calculated the % CV (variability coefficient), which can be considered as an equivalent of error bar value for repeated measure and allow statistical comparison between samples.

[1] = Jurkat T cell lysate, 20' incubation, captured on PECAM1.2-CBA beads

sodium ortovanadate [Na3VO4/H2O2]
MFI CD3 (CD3 associated with bead-captured CD31, Jurkat T cells): 354 MFI | MFI CD28 (CD28 associated with bead-captured CD31, Jurkat T cells): 3932 MFI | % shed CD31 [1]: 25% | CD31 dom2 [1]: 77 ng/mL | CD31 dom6 [1]: 103 ng/mL | MFI SHP-2 (SHP-2 associated with bead-captured CD31, Jurkat T cells): 193 MFI | MFI CD31 pY686 (bead-captured CD31, Jurkat T cells): 10667 MFI | MFI pSer/pThreo (phosphoSerin/Threonin on bead-captured CD31 complex, Jurkat T cells): 324 MFI | MFI pY (4G10) (total phosphoTyrosin on bead-captured CD31 complex, Jurkat T cells): 1205 MFI
